The source made the active and inactive calls. No cut-off for these calls is given here.
Tests used:
Details in all cases: Bone element
[1] = test system: Bone; experiment: Inhibition of PTH-induced bone resorption in mouse parietal bone culture assessed as 45Ca2 release into culture medium at 200 uM after 4 to 6 days by liquid scintillation counting; type: functional
[2] = test system: Bone; experiment: Inhibition of bone resorption in mouse parietal bone culture assessed as 45Ca2 release into culture medium at 200 uM after 4 to 6 days by liquid scintillation counting; type: functional
[3] = test system: Bone; experiment: Inhibition of bone resorption in mouse parietal bone culture assessed as 45Ca2 release into culture medium at 200 uM after 0 to 3 days by liquid scintillation counting; type: functional
[4] = test system: Bone; experiment: Inhibition of PTH-induced bone resorption in mouse parietal bone culture assessed as 45Ca2 release into culture medium at 200 uM by liquid scintillation counting; type: functional, tissue-based

Structure (SMILES)	inhibition at 200 µM [1] [%]	inhibition at 200 µM [2] [%]	inhibition at 200 µM [3] [%]	Activity [4]
COc1cc2oc(-c3ccc(O)cc3)c(O[C@@H]3O[C@H](CO)[C@H](O)[C@H](O)[C@H]3O)c(=O)c2c(O)c1OC	55.3	23.1	20.6	
COc1c(O)cc2oc(-c3ccc(O)cc3)c(O[C@@H]3O[C@H](CO[C@@H]4O[C@@H](C)[C@H](O)[C@@H](O)[C@H]4O)[C@H](O)[C@H](O)[C@H]3O)c(=O)c2c1O				inactive
COc1cc2oc(-c3ccc(O)cc3)c(O[C@@H]3O[C@H](CO)[C@@H](O)[C@H](O)[C@H]3O[C@@H]3O[C@H](CO)[C@H](O)[C@H](O)[C@H]3O)c(=O)c2c(O)c1OC	60.3	38	29.1	
